Earlier results, collected in patent US12176074B2, “Compound function prediction method based on neural network and connectivity map algorithm” (BEIJING GIGACEUTICALS TECH. CO. LTD, priority 2021, dated 2024).

Test system: novel coronavirus (SARS-CoV-2)
Details: specific data in Chinese patent application 202010309486.2; read-out: EC50, effect for fighting against the novel coronavirus

SMILES: O=C1C[C@@H](c2ccc(O[C@@H]3O[C@H](CO)[C@@H](O)[C@H](O)[C@H]3O)cc2)Oc2cc(O)ccc21 [liquiritin]
- EC50: 2390 nM
